Test results: ChEMBL document CHEMBL1201862, “PubChem BioAssay data set” (2004)
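In this assay, cells in 96-well plates receive the compound at five concentrations for 48 hours. Endpoints are linearly interpolated between the surrounding concentrations. Abbreviation: GI50, concentration required for 50% inhibition of growth.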 Activity calls are given as the source filed them. No stated cut-off is given here; in the data, active = GI50 up to about 1.1 µM and inactive = higher.

Key:
Assay in all cases: NCI-60 cell line screen, 48 h
HCT-15 = system: HCT-15
TK-10 = system: TK-10
MOLT-4 = system: MOLT-4
IGROV-1 = system: IGROV-1
NCI-H522 = system: NCI-H522
HCC 2998 = system: HCC 2998
CCRF-CEM = system: CCRF-CEM
KM12 = system: KM12
SW-620 = system: SW-620
COLO 205 = system: COLO 205
MDA-N = system: MDA-N
SNB-75 = system: SNB-75
BT-549 = system: BT-549
OVCAR-8 = system: OVCAR-8
NCI-H460 = system: NCI-H460
RXF 393 = system: RXF 393
MDA-MB-435 = system: MDA-MB-435
LOX IMVI = system: LOX IMVI
NCI-H226 = system: NCI-H226
SK-MEL-5 = system: SK-MEL-5
HT-29 = system: HT-29
SF-268 = system: SF-268
SK-MEL-2 = system: SK-MEL-2
SF-295 = system: SF-295
PC-3 = system: PC-3
UO-31 = system: UO-31
SK-MEL-28 = system: SK-MEL-28
UACC-62 = system: UACC-62
HOP-62 = system: HOP-62
OVCAR-3 = system: OVCAR-3
NCI-H23 = system: NCI-H23
M14 = system: M14
Hs-578T = system: Hs-578T
HL-60 = system: HL-60
DU-145 = system: DU-145
UACC-257 = system: UACC-257
ACHN = system: ACHN
HCT-116 = system: HCT-116
NCI/ADR-RES = system: NCI/ADR-RES
SF-539 = system: SF-539
SNB-19 = system: SNB-19
HOP-92 = system: HOP-92
U-251 = system: U-251
OVCAR-5 = system: OVCAR-5
SN12C = system: SN12C
A549 = system: A549
EKVX = system: EKVX
MDA-MB-231 = system: MDA-MB-231
786-0 = system: 786-0
CAKI-1 = system: CAKI-1
MCF7 = system: MCF7
SK-OV-3 = system: SK-OV-3
OVCAR-4 = system: OVCAR-4
Malme-3M = system: Malme-3M
RPMI-8226 = system: RPMI-8226
K562 = system: K562
SR = system: SR
A498 = system: A498
T47D = system: T47D

NNC(=O)c1nn[nH]c1SSc1[nH]nnc1C(=O)NN
GI50 (HCT-15): > 100 µM
GI50 (TK-10): > 100 µM (inactive)
GI50 (MOLT-4): > 100 µM (inactive)
GI50 (IGROV-1): > 100 µM (inactive)
GI50 (NCI-H522): > 100 µM (inactive)
GI50 (HCC 2998): > 100 µM (inactive)
GI50 (CCRF-CEM): > 100 µM (inactive)
GI50 (KM12): > 100 µM (inactive)
GI50 (SW-620): > 100 µM (inactive)
GI50 (COLO 205): > 100 µM (inactive)
GI50 (MDA-N): > 100 µM (inactive)
GI50 (SNB-75): > 100 µM (inactive)
GI50 (BT-549): > 100 µM (inactive)
GI50 (OVCAR-8): > 100 µM (inactive)
GI50 (NCI-H460): > 100 µM (inactive)
GI50 (RXF 393): > 100 µM (inactive)
GI50 (MDA-MB-435): > 100 µM (inactive)
GI50 (LOX IMVI): > 100 µM (inactive)
GI50 (NCI-H226): > 100 µM (inactive)
GI50 (SK-MEL-5): > 100 µM (inactive)
GI50 (HT-29): > 100 µM (inactive)
GI50 (SF-268): > 100 µM (inactive)
GI50 (SK-MEL-2): > 100 µM (inactive)
GI50 (SF-295): > 100 µM (inactive)
GI50 (PC-3): > 100 µM (inactive)
GI50 (UO-31): > 100 µM (inactive)
GI50 (SK-MEL-28): > 100 µM (inactive)
GI50 (UACC-62): > 100 µM (inactive)
GI50 (HOP-62): > 100 µM (inactive)
GI50 (OVCAR-3): > 100 µM (inactive)
GI50 (NCI-H23): > 100 µM (inactive)
GI50 (M14): > 100 µM (inactive)
GI50 (Hs-578T): > 100 µM (inactive)
GI50 (HL-60): > 100 µM (inactive)
GI50 (DU-145): > 100 µM (inactive)
GI50 (UACC-257): > 100 µM (inactive)
GI50 (ACHN): > 100 µM (inactive)
GI50 (HCT-116): > 100 µM (inactive)
GI50 (NCI/ADR-RES): > 100 µM (inactive)
GI50 (SF-539): > 100 µM (inactive)
GI50 (SNB-19): > 100 µM (inactive)
GI50 (HOP-92): > 100 µM (inactive)
GI50 (U-251): > 100 µM (inactive)
GI50 (OVCAR-5): > 100 µM (inactive)
GI50 (SN12C): > 100 µM (inactive)
GI50 (A549): > 100 µM (inactive)
GI50 (EKVX): > 100 µM (inactive)
GI50 (MDA-MB-231): > 100 µM (inactive)
GI50 (786-0): > 100 µM (inactive)
GI50 (CAKI-1): > 100 µM (inactive)
GI50 (MCF7): > 100 µM (inactive)
GI50 (SK-OV-3): > 100 µM (inactive)
GI50 (OVCAR-4): > 100 µM (inactive)

CCOC(=O)NN(C(=O)OCC)C(=C(C1=CCCCC1)N1CCOCC1)N(NC(=O)OCC)C(=O)OCC
GI50 (HCT-15): > 100 µM
GI50 (TK-10): > 100 µM (inactive)
GI50 (MOLT-4): > 100 µM (inactive)
GI50 (IGROV-1): > 100 µM (inactive)
GI50 (HCC 2998): > 100 µM (inactive)
GI50 (KM12): > 100 µM (inactive)
GI50 (SW-620): > 100 µM (inactive)
GI50 (COLO 205): > 100 µM (inactive)
GI50 (MDA-N): > 100 µM (inactive)
GI50 (SNB-75): > 100 µM (inactive)
GI50 (BT-549): > 100 µM (inactive)
GI50 (OVCAR-8): > 100 µM (inactive)
GI50 (NCI-H460): > 100 µM (inactive)
GI50 (RXF 393): > 100 µM (inactive)
GI50 (MDA-MB-435): > 100 µM (inactive)
GI50 (LOX IMVI): > 100 µM (inactive)
GI50 (NCI-H226): > 100 µM (inactive)
GI50 (Malme-3M): > 100 µM (inactive)
GI50 (RPMI-8226): > 100 µM (inactive)
GI50 (HT-29): > 100 µM (inactive)
GI50 (SF-268): > 100 µM (inactive)
GI50 (K562): > 100 µM (inactive)
GI50 (SR): > 100 µM (inactive)
GI50 (SF-295): > 100 µM (inactive)
GI50 (PC-3): > 100 µM (inactive)
GI50 (UO-31): > 100 µM (inactive)
GI50 (SK-MEL-28): > 100 µM (inactive)
GI50 (UACC-62): > 100 µM (inactive)
GI50 (HOP-62): > 100 µM (inactive)
GI50 (OVCAR-3): > 100 µM (inactive)
GI50 (NCI-H23): > 100 µM (inactive)
GI50 (M14): > 100 µM (inactive)
GI50 (HL-60): > 100 µM (inactive)
GI50 (DU-145): > 100 µM (inactive)
GI50 (ACHN): > 100 µM (inactive)
GI50 (NCI/ADR-RES): > 100 µM (inactive)
GI50 (A498): > 100 µM (inactive)
GI50 (SNB-19): > 100 µM (inactive)
GI50 (HOP-92): > 100 µM (inactive)
GI50 (U-251): > 100 µM (inactive)
GI50 (OVCAR-5): > 100 µM (inactive)
GI50 (SN12C): > 100 µM (inactive)
GI50 (A549): > 100 µM (inactive)
GI50 (EKVX): > 100 µM (inactive)
GI50 (MDA-MB-231): > 100 µM (inactive)
GI50 (T47D): > 100 µM (inactive)
GI50 (786-0): > 100 µM (inactive)
GI50 (CAKI-1): > 100 µM (inactive)
GI50 (MCF7): > 100 µM (inactive)
GI50 (SK-OV-3): > 100 µM (inactive)

CC(C)c1cccc(C(C)C)c1OS(=O)(=O)NC(=O)OC(C(F)(F)F)C(F)(F)F
GI50 (HCT-15): 34.1 µM
GI50 (TK-10): > 100 µM (inactive)
GI50 (MOLT-4): 20 µM (inactive)
GI50 (IGROV-1): > 100 µM (inactive)
GI50 (NCI-H522): 39.5 µM (inactive)
GI50 (HCC 2998): 40.5 µM (inactive)
GI50 (CCRF-CEM): 6.81 µM (inactive)
GI50 (KM12): 43.7 µM (inactive)
GI50 (SW-620): 51.6 µM (inactive)
GI50 (COLO 205): 88.3 µM (inactive)
GI50 (MDA-N): 56.9 µM (inactive)
GI50 (BT-549): 67.8 µM (inactive)
GI50 (OVCAR-8): 46.5 µM (inactive)
GI50 (NCI-H460): 46.7 µM (inactive)
GI50 (MDA-MB-435): 57.1 µM (inactive)
GI50 (LOX IMVI): 50 µM (inactive)
GI50 (NCI-H226): 35.8 µM (inactive)
GI50 (Malme-3M): > 100 µM (inactive)
GI50 (SK-MEL-5): 53.2 µM (inactive)
GI50 (RPMI-8226): 16.4 µM (inactive)
GI50 (SF-268): 95.7 µM (inactive)
GI50 (SK-MEL-2): 35.8 µM (inactive)
GI50 (K562): 24.5 µM (inactive)
GI50 (SR): 36 µM (inactive)
GI50 (SF-295): 25.3 µM (inactive)
GI50 (PC-3): 36.7 µM (inactive)
GI50 (UO-31): 30.1 µM (inactive)
GI50 (SK-MEL-28): > 100 µM (inactive)
GI50 (HOP-62): 34.8 µM (inactive)
GI50 (NCI-H23): 45.7 µM (inactive)
GI50 (M14): 19.2 µM (inactive)
GI50 (Hs-578T): > 100 µM (inactive)
GI50 (HL-60): 37.6 µM (inactive)
GI50 (DU-145): 33.5 µM (inactive)
GI50 (UACC-257): 53.7 µM (inactive)
GI50 (ACHN): 37.1 µM (inactive)
GI50 (HCT-116): 31.5 µM (inactive)
GI50 (NCI/ADR-RES): 32.7 µM (inactive)
GI50 (SF-539): 30.6 µM (inactive)
GI50 (A498): 71.9 µM (inactive)
GI50 (SNB-19): 28.2 µM (inactive)
GI50 (HOP-92): 21.6 µM (inactive)
GI50 (U-251): 43.7 µM (inactive)
GI50 (OVCAR-5): > 100 µM (inactive)
GI50 (SN12C): 33.2 µM (inactive)
GI50 (A549): 28.6 µM (inactive)
GI50 (EKVX): 37.8 µM (inactive)
GI50 (MDA-MB-231): 36.9 µM (inactive)
GI50 (CAKI-1): > 100 µM (inactive)
GI50 (MCF7): 32 µM (inactive)
GI50 (SK-OV-3): 46.7 µM (inactive)
GI50 (OVCAR-4): 50.1 µM (inactive)
